From US5773411A, “Cyclic compounds linked by a heterocyclic ring useful as inhibitors of platelet glycoprotein IIB/IIIA” (The DuPont Merck Pharmaceutical Company, priority 1994, dated 1998)
pIC50: −log10 of the molar value.

Test system: agonist-induced platelet aggregation in platelet-rich plasma (PRP)
Experiment: Platelet Aggregation Assay
Assay type: cell-based
Settings: human PRP; agonists ADP, collagen, arachidonate, epinephrine, thrombin; compound added prior to activation of the platelets
Procedure: Platelet Aggregation Assay
Venous blood was obtained from the arm of a healthy human donor who was drug-free and aspirin-free for at least two weeks prior to blood collection. Blood was collected into 10 ml citrated Vacutainer tubes. The blood was centrifuged for 15 minutes at 150×g at room temperature, and platelet-rich plasma (PRP) was removed. The remaining blood was centrifuged for 15 minutes at 1500×g at room temperature, and platelet-poor plasma (PPP) was removed. Samples were assayed on a aggregometer (PAP-4 Platelet Aggregation Profiler), using PPP as the blank (100% transmittance). 200 μl of PRP was added to each micro test tube, and transmittance was set to 0%. 20 μl of various agonists (ADP, collagen, arachidonate, epinephrine, thrombin) were added to each tube, and the aggregation profiles were plotted (% transmittance versus time). The results were expressed as % inhibition of agonist-induced platelet aggregation. For the IC50 evaluation, the test compounds were added at various concentrations prior to the activation of the platelets.

Row | Compound | pIC50
1 | CC(C)[C@H]1NC(=O)C2=CC=C(CNC(=O)[C@H](CC(=O)O)NC(=O)CNC(=O)[C@H](CCCNC(=N)N)N(C)C1=O)O2 [Example 1, cyclo-(D-Val-N(Me)Arg-Gly-Asp-[5-aminomethyl]-2-furoate)] | > 6.00
2 | CC(C)[C@H]1NC(=O)c2cccc(n2)CNC(=O)[C@H](CC(=O)O)NC(=O)CNC(=O)[C@H](CCCNC(=N)N)N(C)C1=O [Example 3, cyclo(6-(D-Val-NMeArg-Gly-Asp)aminomethyl-2-pyridinecarboxylate)] | 5.00 to 6.00
3 | cyclo-(D-Val-N(Me)Arg-Gly-Asp-[2-amino]-4-thiazoleacetate) [Example 4] | > 6.00
